The values that follow come from PubChem BioAssay AID1645848.

Values after ≈ are worked out from the molar mass of the structure shown. A value given as a limit tells only on which side of the number the result lay.

For the series the following is noted: buffer; pH 7.4; 6.0 h; 150.0 µM.

For the molecule `CCCCn1cc2c(c1-c1ccc(Br)cc1)c(=O)n(C)c(=O)n2C`, the solubility (kinetic) was less than 1 µg/mL. For `CCN(CCO)CCCOc1ccc2c(Nc3cc(CC(=O)Nc4cccc(F)c4)[nH]n3)ncnc2c1` the value was greater than 75 µg/mL. For `O=C(NCCN1CCOCC1)C1CC(=O)N(c2n[nH]c3cc(Br)ccc23)C1` (stereo not given) the value was 32.5 µg/mL (≈ 74.5 µM). Under `CCOc1ccc(CCNC(=O)c2cc3ccccc3o2)cc1OCC` stands 8.88 µg/mL (≈ 25.1 µM); under `COc1ccc(CNC(=O)CCCn2nc(C)c3c(C)n(-c4ccc(C)cc4)nc3c2=O)cc1OC`, greater than 48 µg/mL; under `Cc1cc(-c2nnc3n2CCCCC3)c(C)n1-c1cccc(C#N)c1`, greater than 49 µg/mL. `CSc1ncc(Cl)c(C(=O)Nc2c(C)cccc2C)n1` returned a solubility (kinetic) of 1.91 µg/mL (≈ 6.19 µM).

In turn, `O=C1CCCC2=C1C(c1[nH]ncc1Cl)N=C(Nc1nc3ccc(Cl)cc3o1)N2` (stereo not given) showed a solubility (kinetic) of 1 µg/mL (≈ 2.4 µM). For `Cc1ccc(S(=O)(=O)Nc2cnccc2C(=O)Nc2nc(-c3ccccc3F)cs2)cc1` the value was less than 1 µg/mL; for `O=C(NC1CCCc2c1cnn2-c1ccc(O)cc1)c1ccccn1` (stereo not given), 40.8 µg/mL (≈ 122 µM).

Molecule `CC(C)COc1ccc(-c2ccc(=O)n(CC(=O)NCCc3ccccc3)n2)cc1` registered a kinetic solubility of less than 1 µg/mL. For `O=C(Nc1ncc(Cc2ccc(C(F)(F)F)cc2)s1)c1ccc(-c2cccnc2)o1` the value was less than 1 µg/mL. Under `Oc1ccc(CNc2cccc(F)c2)c2cccnc12` stands less than 1 µg/mL; under `Cc1cccc(-n2c(C)cc(C=C(C#N)C#N)c2C)c1`, less than 1 µg/mL. Under `Cc1cc(F)ccc1S(=O)(=O)Nc1cnccc1C(=O)Nc1nc(-c2ccccc2)cs1` stands 34.6 µg/mL (≈ 73.9 µM); under `COc1cccc(C(=O)NCCSc2c(-c3ccc(F)cc3)[nH]c3ccccc23)c1OC`, less than 1 µg/mL; under `COc1cccc(CNc2ccc(S(=O)(=O)Nc3cccs3)cc2)c1O`, 11.6 µg/mL (≈ 29.6 µM). For the molecule `COc1ccccc1Nc1cnc2ccc(-c3ccc(OC)c(OC)c3)nn12`, the solubility (kinetic) was less than 1 µg/mL. Under `COc1cccc(CNc2ccc(S(=O)(=O)Nc3nccs3)cc2)c1OC` stands 3.6 µg/mL (≈ 8.88 µM); under `CN(C)c1cccc(-c2c3c(=O)n(-c4ccccc4Cl)[nH]c3cc(=O)n2C)c1`, 46.5 µg/mL (≈ 118 µM). Under `COc1ccc(N(C)C(=O)c2cc3c(s2)-c2ccccc2OC3)cc1` stands less than 1 µg/mL. Under `C[C@@]1(c2ncncc2F)NC(=O)c2cc(-c3cn[nH]c3)ccc21` stands 17.9 µg/mL (≈ 58 µM); under `Cc1noc(/C=C/c2ccccc2F)c1S(=O)(=O)N1CCC(C(=O)Nc2ccc(C#N)cc2)CC1`, less than 1 µg/mL. In the case of `CC(=O)N1CCc2c(sc3c2c(=O)n(-c2ccccc2)c(=O)n3Cc2cccc(C(F)(F)F)c2)C1`, the kinetic solubility came to 10 µg/mL (≈ 20.1 µM).

As to `O=C(NC1CC1)c1nc(-c2cccnc2)c2ccccn12`, the kinetic solubility is greater than 62 µg/mL. Under `O=C(O)c1cccc(-c2cnc3ccccc3c2)c1` stands greater than 37 µg/mL; under `Cc1ccc(-c2cc(C(=O)NC3CCCCC3)c3ccccc3n2)cc1`, less than 1 µg/mL. For `CCOC(=O)C1=C(CN(CC)Cc2ccccc2)NC(=O)NC1c1ccc(OC(C)C)cc1` (stereo not given) the value was less than 1 µg/mL.

As to `CC(C)C[C@H]1C(=O)N2CCC[C@H]2[C@]2(O)O[C@](NC(=O)[C@@H]3C=C4c5cccc6[nH]c(Br)c(c56)C[C@H]4N(C)C3)(C(C)C)C(=O)N12`, the kinetic solubility is less than 1 µg/mL. For `COC(=O)C1=C(C)NC(=O)CC1C(=O)Nc1ccc(Cl)cc1` (stereo not given) the value was 31.2 µg/mL (≈ 96.8 µM); for `COc1ccc(OC)c(C(=O)Nc2nc(-c3ccccc3)cs2)c1`, less than 1 µg/mL; for `O=C1Nc2ccccc2/C1=C\c1ccc(O)c(Cl)c1`, 22.8 µg/mL (≈ 83.9 µM). For `CC(=O)OCCN1C(=O)c2c(C)nc3ccc(S(=O)(=O)N4CCOCC4)cc3c2C1=O` the value was less than 1 µg/mL; for `CCN(CC)CCCC(C)Nc1cc(/C=C/c2ccccc2Cl)nc2cc(Cl)ccc12` (stereo not given), 25.4 µg/mL (≈ 55.7 µM). Under `Cc1ccccc1C(=O)N1CCc2cc(-c3nc(NC(=O)Cc4ccccc4)sc3C)ccc21` stands less than 1 µg/mL.

Regarding `COC(=O)c1ccccc1C(=O)Nc1nc(-c2ccccc2)cs1`, the solubility (kinetic) is 7.61 µg/mL (≈ 22.5 µM). Under `Oc1ccc(NCc2ccccc2OCc2ccccc2Cl)cc1` stands 3.28 µg/mL (≈ 9.65 µM).

The molecule `COc1cccc(CNc2ccc(S(=O)(=O)Nc3ccccn3)cc2)c1O` came in with a solubility (kinetic) of 8.36 µg/mL (≈ 21.7 µM).

As for `CCN(CC)C(=O)c1coc(COc2ccc3c(c2)C(c2cccc(F)c2)N(C(=O)C(C)C)CC3)n1` (stereo not given), the kinetic solubility was less than 1 µg/mL.

Regarding `NC(=O)C1CCN(c2nc(-c3ccccc3C(F)(F)F)cs2)CC1`, the solubility (kinetic) is greater than 52 µg/mL. Under `N#Cc1ccc(NS(=O)(=O)c2ccc(NC(=O)Cc3ccc(F)c(Cl)c3)cc2)cc1` stands less than 1 µg/mL; under `CN1C(=O)c2ccccc2[S@](=O)c2ccc(C(=O)NCc3cccnc3)cc21`, 1.35 µg/mL (≈ 3.45 µM). Molecule `COc1ccc(-c2nc(NC(C)c3ccccc3)c3ccccc3n2)cc1` (stereo not given) showed a kinetic solubility of less than 1 µg/mL.

As to `Fc1ccc(Nc2nc(-c3ccccc3)cc(-c3ccncc3)n2)cc1F`, the solubility (kinetic) was less than 1 µg/mL. Under `CCc1ccc(NC(=O)c2[nH]c(C)c(C(C)=O)c2C)cc1[S+](=O)([O-])Nc1ccccc1C#N` stands 40.3 µg/mL (≈ 86.8 µM); under `N#Cc1ccc(-c2csc(N3CCC(C(N)=O)CC3)n2)cc1`, 4.34 µg/mL (≈ 13.9 µM).

With `COc1ccc(-n2c(C)c(C(C)=O)c3ccccc32)cc1`, the solubility (kinetic) was less than 1 µg/mL. Under `CC(=O)Nc1ccc(OCc2cn(CC(=O)c3ccc(O)cc3)nn2)cc1` stands 18.7 µg/mL (≈ 51 µM); under `O=C(Nc1nc2cc(C(F)(F)F)cc(NC3CC3)n2n1)c1cccnc1`, less than 1 µg/mL. In turn, `O=c1cc(-c2ccc(O)c(O)c2)oc2cc(O)cc(O)c12` showed a solubility (kinetic) greater than 100 µg/mL. For `CCCC1=Nc2cc(C(=O)NC3CCCCC3)ccc2Sc2ccc(C)cc21` the value was 1.37 µg/mL (≈ 3.48 µM); for `Br.CC(Cc1ccc(O)cc1)NCC(O)c1cc(O)cc(O)c1` (stereo not given), greater than 45 µg/mL; for `CCC1=Nc2cc(C(=O)NC3CCCC3)ccc2Sc2ccc(Cl)cc21`, less than 1 µg/mL.

Regarding `COc1cc2cc(CN3CCC(N(C)C)C3)c(-c3cccc(Cl)c3)nc2cc1OC` (stereo not given), the solubility (kinetic) is greater than 42 µg/mL. With `O=C1NC(=S)NC(=O)C1=Cc1cccn1-c1ccc(O)cc1`, the kinetic solubility stood at 37 µg/mL (≈ 118 µM). Under `O=C(Nc1nnc(-c2cccs2)o1)c1ccc(Cl)cc1` stands 6.09 µg/mL (≈ 19.9 µM); under `CC(=O)Nc1ccc(S(=O)(=O)Nc2nccs2)cc1`, greater than 44 µg/mL.

`COc1nccc(-c2nc(Nc3ccc(F)c(F)c3)c3ccccc3n2)c1Cl` came in with a kinetic solubility of less than 1 µg/mL. Under `O=C(Nc1ccccc1-c1cn2c(CN3CCNCC3)csc2n1)c1cnc2ccccc2n1` stands 4.56 µg/mL (≈ 9.71 µM); under `Cc1noc(C)c1-c1ccc(Nc2nc(-c3ccncc3)nc3ccccc23)cc1F`, less than 1 µg/mL. `CC(C)c1ccc2oc3nc(N)c(C(=O)O)cc3c(=O)c2c1` came in with a solubility (kinetic) greater than 44 µg/mL. The molecule `CCOc1ccccc1C(=O)Nc1ccncc1C(=O)Nc1cccc(S(=O)(=O)C(F)(F)F)c1` came in with a kinetic solubility of less than 1 µg/mL. Take `CCc1cccc(NS(=O)(=O)c2ccc3c(c2)CC(C)N3C(=O)C2CC2)c1` (stereo not given): the solubility (kinetic) is less than 1 µg/mL. Under `CCOc1ccc(CCNC(=O)c2cccc(C(=O)c3ccccc3)c2)cc1OCC` stands 3.12 µg/mL (≈ 7.47 µM); under `COc1ccc(C)cc1-n1nnnc1Sc1ncnc2scc(-c3ccc(Br)cc3)c12`, 2.38 µg/mL (≈ 4.65 µM). `CCOC(=O)CCNc1cc(N2CCc3ccccc3CC2)nc(-c2ccccn2)n1` gave a kinetic solubility of 8.45 µg/mL (≈ 20.2 µM).

Molecule `Cc1ccccc1C(=O)N1CCc2cc(-c3ccnc(NC(=O)Cc4ccccc4)n3)ccc21` showed a kinetic solubility of 6.19 µg/mL (≈ 13.8 µM). For `COc1ccc(-c2ccc(Nc3nc(-c4ccncc4)nc4ccccc34)cc2F)cc1F` the value was less than 1 µg/mL; for `Cn1c(C(=O)NCCc2ccccn2)nc2nc(-c3ccccc3)c(Cl)cc21`, 1.11 µg/mL (≈ 2.84 µM); for `Cc1ccc(S(=O)(=O)Nc2cncc(C(=O)Nc3nc(-c4ccccc4)cs3)c2)cc1`, less than 1 µg/mL. `Cc1noc(C)c1-c1cc2c(cc(C)n2C)c(-c2cnn(C)c2)n1` displayed a solubility (kinetic) of 15.2 µg/mL (≈ 47.2 µM). For `O=C(NCCCN1CCCC1=O)c1ccc(-c2ncc3cnc(-c4ccccc4)cn23)cc1` the value was 21.9 µg/mL (≈ 49.9 µM); for `CSc1ccccc1N1CCN(CCCCCC(=O)NC2CCCc3ccccc32)CC1` (stereo not given), 44.7 µg/mL (≈ 99 µM); for `Cc1cc(C)c(CNC(=O)c2nc(-c3ccc(F)cc3)cc3c2ccn3C(C)C)c(=O)[nH]1`, less than 1 µg/mL.

In turn, `C[C@]12N[C@H](Cc3ccccc31)c1ccccc12` came in with a solubility (kinetic) greater than 33 µg/mL.

On to `Cc1ccnc(NC(=S)N2CCN(c3cc(F)cc(Cl)c3)CC2)c1`, for which the solubility (kinetic) is less than 1 µg/mL.

In turn, `CCC(C)N(C)C(=O)c1cc2ccccc2c(-c2ccccc2Cl)n1` (stereo not given) showed a kinetic solubility of 38.6 µg/mL (≈ 109 µM).

`Cc1cc(NS(=O)(=O)c2ccc(NC(=O)Cc3ccc(Cl)c(Cl)c3)cc2)n(C)n1` displayed a kinetic solubility greater than 67 µg/mL. As to `Cc1ccc2c(c1)N(S(=O)(=O)c1cc(-c3onc(C)c3C)ccc1C)CCO2`, the solubility (kinetic) was less than 1 µg/mL.

Turning to `CCOC(=O)C1CCN(C(=O)Nc2ccc3c(c2)nc(C)n3C)CC1`, the solubility (kinetic) is greater than 51 µg/mL. Under `CC(=O)N1CCN(c2ccc(OCc3nn(C)c(C)c3-c3cccc4c(CCCOc5cccc6ccccc56)c(C(=O)O)n(Cc5cccnc5)c34)cc2)CC1` stands greater than 100 µg/mL. For `CCOC(=O)c1ccc(NC(=O)c2sc3nc4c(cc3c2N)N2CCC4CC2)cc1` the value was less than 1 µg/mL; for `COC(=O)c1ccccc1NC(=O)c1ccccc1OC(F)F`, less than 1 µg/mL. The molecule `Cc1ccnc(NC(=S)N2CCN(c3ccccc3C(F)(F)F)CC2)c1` registered a kinetic solubility of 8.07 µg/mL (≈ 21.2 µM).

On to `COc1cccc2nc(-c3cccs3)nc(NN3C(=O)C=C(C)C3=O)c12`, for which the solubility (kinetic) is greater than 54 µg/mL. Under `c1ccc(-c2cn[nH]c2)cc1` stands greater than 14 µg/mL; under `Cc1ccnc(NC(=S)N2CCN(c3ccc(Cl)c(Cl)c3)CC2)c1`, less than 1 µg/mL.

In turn, `NC(=O)C1CCN(c2nc(-c3ccccc3Cl)cs2)CC1` came in with a solubility (kinetic) greater than 47 µg/mL.

On to `COC(=O)CNC(=O)c1nc(-c2ccc(Cl)nc2)c2cnccn12`, for which the kinetic solubility was greater than 61 µg/mL. The molecule `C/C=C1/CN2CC[C@@]34c5ccccc5N(C)[C@@H]3[C@@H]2C[C@@H]1[C@H]4C(=O)OC` gave a kinetic solubility greater than 33 µg/mL.
